Question: With Cc1cc(-c2cccc(C3=Nc4ccc(-c5ccccc5F)cc4NC(=O)C3)c2)on1 [Example 127, 8-(2-Fluoro-phenyl)-4-[3-(3-methyl-isoxazol-5-yl)-phenyl]-1,3-dihydro-benzo-[b][1,4]diazepin-2-one] as the compound, how does the melting point read?
Answer: Its melting point is 222 to 224 °C.

Question: With N#Cc1cccc(C2=Nc3ccc(C#Cc4ccc(F)cc4F)cc3NC(=O)C2)c1 [Example 130, 3-[7-(2,4-Difluoro-phenylethynyl)-4-oxo-4,5-dihydro-3H-benzo [b][1,4]diazepin-2-yl]-benzonitrile] as the compound, how does the melting point read?
Answer: Its melting point is 240 to 246 °C.

Question: Which melting point does the source give for N#Cc1cccc(C2=Nc3ccc(C#Cc4ccccc4F)cc3NC(=O)C2)c1 [Example 131, 3-[7-(2-Fluoro-phenylethynyl)-4-oxo-4,5-dihydro-3H-benzo[b][1,4]diazepin-2-yl]-benzonitrile] here?
Answer: The melting point was 213 to 214 °C.

Question: Which melting point does the source give for C#Cc1cccc(C2=Nc3ccc(C#Cc4ccccc4)cc3NC(=O)C2)c1 [Example 133, 4-(3-Ethynyl-phenyl)-8-phenylethynyl-1,3-dihydro-benzo[b][1,4]diazepin-2-one] here?
Answer: The melting point was > 250 °C (dec.).

Question: Which melting point does the source give for N#Cc1cccc(C2=Nc3ccc(C#CC4=CCOCC4)cc3NC(=O)C2)c1 [Example 138, 3-[7-(3,6-Dihydro-2H-pyran-4-ylethynyl)-4-oxo-4,5-dihydro-3H-benzo [b][1,4]diazepin-2-yl]-benzonitrile] here?
Answer: Its melting point is 238 °C.

Question: Which melting point does the source give for CC(C)(C)OC(=O)N1CC=C(C#Cc2ccc3c(c2)NC(=O)CC(c2cccc(C#N)c2)=N3)CC1 [Example 139, 4-[2-(3-Cyano-phenyl)-4-oxo-4,5-dihydro-3H-benzo [b][1,4]diazepin-7-ylethynyl]-3,6-dihydro-2H-pyridine-1-carboxylic acid tert.-butyl ester] here?
Answer: Its melting point is 239 °C.

Question: Which melting point does the source give for N#Cc1cccc(C2=Nc3ccc(C#CC4=CCNCC4)cc3NC(=O)C2)c1 [Example 140, 3-[4-Oxo-7-(1,2,3,6-tetrahydro-pyridin-4-ylethynyl)-4,5-dihydro-3H-benzo [b][1,4]diazepin-2-yl]-benzonitrile] here?
Answer: The melting point was 184 °C.

Question: Which melting point does the source give for CC(=O)N1CC=C(C#Cc2ccc3c(c2)NC(=O)CC(c2cccc(C#N)c2)=N3)CC1 [Example 141, 3-[7-(1-Acetyl-1,2,3,6-tetrahydro-pyridin-4-ylethynyl)-4-oxo-4,5-dihydro-3H-benzo[b][1,4]diazepin-2-yl]-benzonitrile] here?
Answer: Its melting point is 203 °C.

Question: With CS(=O)(=O)N1CC=C(C#Cc2ccc3c(c2)NC(=O)CC(c2cccc(C#N)c2)=N3)CC1 [Example 142, 3-[7-(1-Methanesulfonyl-1,2,3,6-tetrahydro-pyridin-4-ylethynyl)-4-oxo-4,5-dihydro-3H-benzo[b][1,4]diazepin-2-yl]-benzonitrile] as the compound, how does the melting point read?
Answer: The melting point was 235 °C.

Question: For CC(C)(C)C(=O)N1CC=C(C#Cc2ccc3c(c2)NC(=O)CC(c2cccc(C#N)c2)=N3)CC1 [Example 143, 3-{7-[1-(2,2-Dimethyl-propionyl)-1,2,3,6-tetrahydro-pyridin-4-ylethynyl]-4-oxo-4,5-dihydro-3H-benzo [b][1,4]diazepin-2-yl}-benzonitrile], which melting point is on record?
Answer: Its melting point is 219 °C.

Question: With N#Cc1cccc(C2=Nc3ccc(C#CC4=CC(=O)CCC4)cc3NC(=O)C2)c1 [Example 144, 3-[4-Oxo-7-(3-oxo-cyclohex-1-enylethynyl)-4,5-dihydro-3H-benzo [b][1,4]diazepin-2-yl]-benzonitrile] as the compound, how does the melting point read?
Answer: Its melting point is 110 °C.

Question: For N#Cc1cccc(C2=Nc3ccc(C#Cc4ccc(F)cc4)cc3NC(=O)C2)c1 [Example 145, 3-[7-(4-Fluoro-phenylethynyl)-4-oxo-4,5-dihydro-3H-benzo [b][1,4]diazepin-2-yl]-benzonitrile], which melting point is on record?
Answer: Its melting point is 245 to 246 °C.

Question: For CN1CCN(C(=O)c2cccc(C3=Nc4ccc(C#Cc5ccccc5)cc4NC(=O)C3)c2)CC1 [Example 147, 4-[3-(4-Methyl-piperazine-1-carbonyl)-phenyl]-8-phenylethynyl-1,3-dihydro-benzo[b][1,4]diazepin-2-one], which melting point is on record?
Answer: Its melting point is 168 to 172 °C (dec.).

Question: Which melting point does the source give for NC(=O)c1cccc(C2=Nc3ccc(C#Cc4ccccc4)cc3NC(=O)C2)c1 [Example 148, 3-(4-Oxo-7-phenylethynyl-4,5-dihydro-3H-benzo [b][1,4]diazepin-2-yl)-benzamide] here?
Answer: Its melting point is > 250 °C (dec.).

Question: With NC(=S)c1cccc(C2=Nc3ccc(-c4ccc(F)cc4)cc3NC(=O)C2)c1 [Example 149, 3-[7-(4-Fluoro-phenyl)-4-oxo-4,5-dihydro-3H-benzo [b][1,4]diazepin-2-yl]-thiobenzamide] as the compound, how does the melting point read?
Answer: The melting point was 267 to 270 °C (dec.).

Question: Which melting point does the source give for NC(=S)c1cccc(C2=Nc3ccc(-c4ccccc4F)cc3NC(=O)C2)c1 [Example 150, 3-[7-(2-Fluoro-phenyl)-4-oxo-4,5-dihydro-3H-benzo[b][1,4]diazepin-2-yl]-thiobenzamide] here?
Answer: The melting point was 232 to 234 °C (dec.).

Question: Which melting point does the source give for Cc1csc(-c2cccc(C3=Nc4ccc(-c5ccc(F)cc5)cc4NC(=O)C3)c2)n1 [Example 152, 8-(4-Fluoro-phenyl)-4-[3-(4-methyl-thiazol-2-yl)-phenyl]-1,3-dihydro-benzo [b][1,4]diazepin-2-one] here?
Answer: The melting point was 259 to 261 °C (dec.).

Question: With CCOC(=O)c1csc(-c2cccc(C3=Nc4ccc(-c5ccc(F)cc5)cc4NC(=O)C3)c2)n1 [Example 153, 2-{3-[7-(4-Fluoro-phenyl)-4-oxo-4,5-dihydro-3H-benzo [b][1,4]diazepin-2-yl]-phenyl}-thiazole-4-carboxylic Acid Ethyl Ester] as the compound, how does the melting point read?
Answer: Its melting point is 236 to 238 °C (dec.).

Question: Which melting point does the source give for CCOC(=O)c1csc(-c2cccc(C3=Nc4ccc(-c5ccccc5F)cc4NC(=O)C3)c2)n1 [Example 154, 2-{3-[7-(2-Fluoro-phenyl)-4-oxo-4,5-dihydro-3H-benzo [b][1,4]diazepin-2-yl]-phenyl}-thiazole-4-carboxylic Acid Ethyl Ester] here?
Answer: Its melting point is 172 to 175 °C.

Question: Which melting point does the source give for CCOC(=O)c1csc(-c2cc(C3=Nc4ccc(-c5ccc(F)cc5)cc4NC(=O)C3)ccn2)n1 [Example 155, 2-{4-[7-(4-Fluoro-phenyl)-4-oxo-4,5-dihydro-3H-benzo[b][1,4]diazepin-2-yl]-pyridin-2-yl}-thiazole-4-carboxylic Acid Ethyl Ester] here?
Answer: The melting point was 238 to 240 °C (dec.).

Question: With O=C1CC(c2cccc(-c3nc(CO)cs3)c2)=Nc2ccc(-c3ccc(F)cc3)cc2N1 [Example 156, 8-(4-Fluoro-phenyl)-4-[3-(4-hydroxymethyl-thiazol-2-yl)-phenyl]-1,3-dihydro-benzo[b][1,4]diazepin-2-one] as the compound, how does the melting point read?
Answer: The melting point was 235 to 239 °C (dec.).

Question: Which melting point does the source give for O=C1CC(c2ccnc(-c3nc(CO)cs3)c2)=Nc2ccc(-c3ccc(F)cc3)cc2N1 [Example 158, 8-(4-Fluoro-phenyl)-4-[2-(4-hydroxymethyl-thiazol-2-yl)-pyridin-4-yl]-1,3-dihydro-benzo[b][1,4]diazepin-2-one] here?
Answer: Its melting point is 225 to 229 °C.

Question: Which melting point does the source give for O=C1CC(c2cccc(-c3nc(C(=O)NCCO)cs3)c2)=Nc2ccc(-c3ccc(F)cc3)cc2N1 [Example 161, 2-{3-[7-(4-Fluoro-phenyl)-4-oxo-4,5-dihydro-3H-benzo [b][1,4]diazepin-2-yl]-phenyl}-thiazole-4-carboxylic Acid (2-hydroxy-ethyl)-amide] here?
Answer: The melting point was 238 to 245 °C (dec.).

Question: With Cc1nc(-c2cccc(C3=Nc4ccc(-c5ccc(F)cc5)cc4NC(=O)C3)c2)sc1C(=O)NCCO [Example 162, 2-{3-[7-(4-Fluoro-phenyl)-4-oxo-4,5-dihydro-3H-benzo [b][1,4]diazepin-2-yl]-phenyl}-4-methyl-thiazole-5-carboxylic Acid (2-hydroxy-ethyl)-amide] as the compound, how does the melting point read?
Answer: Its melting point is 248 to 251 °C (dec.).

Question: Which melting point does the source give for Cc1nnc(-c2cccc(C3=Nc4ccc(-c5ccc(F)cc5)cc4NC(=O)C3)c2)o1 [Example 165, 8-(4-Fluoro-phenyl)-4-[3-(5-methyl-[1,3,4]oxadiazol-2-yl)-phenyl]-1,3-dihydro-benzo[b][1,4]diazepin-2-one] here?
Answer: The melting point was 254 to 256 °C (dec.).

Question: For O=C1CC(c2cccc(-c3noc(CCCO)n3)c2)=Nc2ccc(-c3ccc(F)cc3)cc2N1 [Example 168, 8-(4-Fluoro-phenyl)-4-{3-[5-(3-hydroxy-propyl)-[1,2,4]oxadiazol-3-yl]-phenyl}-1,3-dihydro-benzo[b][1,4]diazepin-2-one], which melting point is on record?
Answer: The melting point was 220 to 222 °C.

Question: Which melting point does the source give for Cc1noc(-c2cccc(C3=Nc4ccc(-c5ccc(F)cc5)cc4NC(=O)C3)c2)n1 [Example 169, 8-(4-Fluoro-phenyl)-4-[3-(3-methyl-[1,2,4]oxadiazol-5-yl)-phenyl]-1,3-dihydro-benzo[b][1,4]diazepin-2-one] here?
Answer: Its melting point is 266 to 268 °C.

— patent publication US6509328B1, “Glutamate receptor antagonists” (Hoffmann-La Roche Inc., priority 1999, dated 2003)
